Consider two molecules from US11618765B2, “Broad-spectrum antiviral nucleoside derivatives” (priority 2020, dated 2023).

One series has as its system human cells in culture. The conditions noted are these: cited from earlier work.
Series [1] addresses T1, HIV-reverse transcriptase (Human immunodeficiency virus type 1 group M subtype B, UniProt P04585). The series can be described thus: inhibition of HIV-reverse transcriptase. The class given is biochemical. The conditions noted are these: ratio of IC50 values. From the text:
Another example of a pyrimidine nucleoside analog as a direct acting antiviral is imidine (dImd), a thymidine analog, [17]. […] Its monophosphate (dIMP) readily incorporated into proviral DNA in place of dTMP, preferentially opposite to adenine (A) in the viral RNA template and caused a decrease in the fidelity of replication at the incorporated sites, due to misincorporation.

Series [2] deals with T1, HIV-reverse transcriptase. Conditions: read-out: IC50 for inhibition of HIV-reverse transcriptase; cited from earlier work.
A further series addresses T2, Molt-4 DNA polymerase a (Homo sapiens, UniProt P09884).
T2 construct: host or cells: Molt-4
Conditions: read-out: IC50 for inhibition of Molt-4 DNA polymerase a; cited from earlier work.

T2 sequence (P09884 whole entry): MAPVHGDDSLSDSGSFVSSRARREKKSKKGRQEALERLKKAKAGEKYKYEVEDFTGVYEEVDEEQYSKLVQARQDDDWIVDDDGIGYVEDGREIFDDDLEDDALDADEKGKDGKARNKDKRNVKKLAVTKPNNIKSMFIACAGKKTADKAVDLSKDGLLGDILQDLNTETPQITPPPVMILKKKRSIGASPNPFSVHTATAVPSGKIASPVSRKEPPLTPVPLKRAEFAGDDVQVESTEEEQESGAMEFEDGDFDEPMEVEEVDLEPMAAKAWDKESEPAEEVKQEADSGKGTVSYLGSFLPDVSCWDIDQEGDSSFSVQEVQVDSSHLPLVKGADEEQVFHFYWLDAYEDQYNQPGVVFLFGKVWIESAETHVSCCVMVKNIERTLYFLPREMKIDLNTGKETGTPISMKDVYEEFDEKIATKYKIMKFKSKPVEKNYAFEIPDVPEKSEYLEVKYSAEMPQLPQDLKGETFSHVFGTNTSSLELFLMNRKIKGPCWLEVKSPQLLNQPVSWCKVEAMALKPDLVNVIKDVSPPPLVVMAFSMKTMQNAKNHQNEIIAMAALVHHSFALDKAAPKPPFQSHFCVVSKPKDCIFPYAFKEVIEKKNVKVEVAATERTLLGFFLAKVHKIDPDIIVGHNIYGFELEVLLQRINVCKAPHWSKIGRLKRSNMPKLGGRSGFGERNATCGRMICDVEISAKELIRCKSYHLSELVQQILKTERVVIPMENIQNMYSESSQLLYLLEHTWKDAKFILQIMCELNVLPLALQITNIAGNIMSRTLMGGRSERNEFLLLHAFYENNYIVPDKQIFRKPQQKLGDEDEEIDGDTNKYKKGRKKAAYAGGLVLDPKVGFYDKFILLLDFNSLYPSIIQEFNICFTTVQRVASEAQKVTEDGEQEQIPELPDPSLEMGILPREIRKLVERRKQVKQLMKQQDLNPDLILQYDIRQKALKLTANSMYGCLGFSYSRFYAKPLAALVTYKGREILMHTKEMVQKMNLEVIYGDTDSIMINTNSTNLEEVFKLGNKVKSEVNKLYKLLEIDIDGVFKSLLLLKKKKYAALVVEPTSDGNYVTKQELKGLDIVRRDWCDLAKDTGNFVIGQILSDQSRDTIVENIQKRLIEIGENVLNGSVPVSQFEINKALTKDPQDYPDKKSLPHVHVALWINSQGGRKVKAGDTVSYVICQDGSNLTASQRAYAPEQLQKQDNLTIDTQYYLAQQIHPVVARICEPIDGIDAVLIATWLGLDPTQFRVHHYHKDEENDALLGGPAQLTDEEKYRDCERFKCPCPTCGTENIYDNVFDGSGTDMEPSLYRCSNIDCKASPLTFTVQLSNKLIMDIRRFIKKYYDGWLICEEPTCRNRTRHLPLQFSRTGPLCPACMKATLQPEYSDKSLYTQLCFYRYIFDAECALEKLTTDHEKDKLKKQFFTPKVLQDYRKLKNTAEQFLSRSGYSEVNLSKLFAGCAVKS
T2 sequence (Q14181 whole entry partner): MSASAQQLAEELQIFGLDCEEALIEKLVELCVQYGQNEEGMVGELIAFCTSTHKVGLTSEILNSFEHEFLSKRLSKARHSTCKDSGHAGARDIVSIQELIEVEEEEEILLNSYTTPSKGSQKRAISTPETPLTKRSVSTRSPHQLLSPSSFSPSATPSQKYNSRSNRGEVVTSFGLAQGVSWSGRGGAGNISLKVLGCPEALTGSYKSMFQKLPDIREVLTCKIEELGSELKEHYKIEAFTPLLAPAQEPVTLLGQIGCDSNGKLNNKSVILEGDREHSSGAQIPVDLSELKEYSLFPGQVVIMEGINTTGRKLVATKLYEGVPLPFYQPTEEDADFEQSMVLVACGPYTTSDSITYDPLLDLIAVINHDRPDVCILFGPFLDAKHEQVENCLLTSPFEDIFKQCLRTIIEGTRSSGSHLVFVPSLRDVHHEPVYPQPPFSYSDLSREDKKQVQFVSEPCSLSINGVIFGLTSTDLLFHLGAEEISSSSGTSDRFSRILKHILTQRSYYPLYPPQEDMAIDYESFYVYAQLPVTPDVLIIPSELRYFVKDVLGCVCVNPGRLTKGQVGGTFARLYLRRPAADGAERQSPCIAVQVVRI
T2 sequence (P49642 whole entry partner): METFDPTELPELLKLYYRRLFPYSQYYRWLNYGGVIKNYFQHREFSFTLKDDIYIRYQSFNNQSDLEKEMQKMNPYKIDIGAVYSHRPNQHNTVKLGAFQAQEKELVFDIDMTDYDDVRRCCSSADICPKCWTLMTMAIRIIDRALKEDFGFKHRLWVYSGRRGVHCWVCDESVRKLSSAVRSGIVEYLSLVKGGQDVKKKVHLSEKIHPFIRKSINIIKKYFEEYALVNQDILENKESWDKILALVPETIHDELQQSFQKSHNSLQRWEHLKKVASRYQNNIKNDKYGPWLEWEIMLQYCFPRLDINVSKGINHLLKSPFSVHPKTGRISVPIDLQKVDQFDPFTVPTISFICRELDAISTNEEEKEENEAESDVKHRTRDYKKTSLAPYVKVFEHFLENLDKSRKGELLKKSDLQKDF
T2 sequence (P49643 whole entry partner): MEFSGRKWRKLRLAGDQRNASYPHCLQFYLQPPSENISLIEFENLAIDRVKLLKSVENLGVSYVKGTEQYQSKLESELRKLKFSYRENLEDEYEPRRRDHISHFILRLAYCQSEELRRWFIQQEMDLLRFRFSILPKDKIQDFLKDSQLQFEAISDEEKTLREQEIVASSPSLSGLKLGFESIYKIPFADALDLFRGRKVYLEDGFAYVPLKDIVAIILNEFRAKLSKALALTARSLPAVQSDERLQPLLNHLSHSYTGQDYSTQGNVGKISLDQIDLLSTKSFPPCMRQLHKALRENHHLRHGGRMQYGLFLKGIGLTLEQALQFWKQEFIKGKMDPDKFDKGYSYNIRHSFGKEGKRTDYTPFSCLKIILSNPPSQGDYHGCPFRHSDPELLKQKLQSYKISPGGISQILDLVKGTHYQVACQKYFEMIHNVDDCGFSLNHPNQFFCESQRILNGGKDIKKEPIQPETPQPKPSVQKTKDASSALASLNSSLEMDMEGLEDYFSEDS

On to `CC(=O)c1cn([C@H]2C[C@H](O)[C@@H](CO)O2)c(=O)[nH]1` [imidine, 1-(2-deoxy-β-D-ribofuranosyl)-4-acetylimidazolin-2-one], for which, in the series with human cells in culture, the cytotoxicity result is on record as “no cytotoxicity”.
Broadly, the IC50 is the concentration that gives 50% inhibition. As for `CC(=O)c1cn(C2CC(O)C(COP(=O)(O)OP(=O)(O)OP(=O)(O)O)O2)c(=O)[nH]1` (stereo not shown) [dImdTP], the “selectivity (HIV-reverse transcriptase vs Molt-4 DNA polymerase a)” value in series [1] is greater than 400 fold. The figures for the IC50 (in series [2]; at Molt-4 DNA polymerase a) were 0.038 µM and 17 µM, respectively.
